Data on 3 compounds can be found in patent US11098056B2, “UDP glycosyltransferase inhibitors and methods of use” (GENZYME CORPORATION, priority 2018, dated 2021).

Some results are limits rather than exact numbers.

Assay [1] deals with T1, UGT8 (Homo sapiens, UniProt Q16880).
T1 construct: host or cells: OE19 cells
T1 sequence (Q16880 21-541): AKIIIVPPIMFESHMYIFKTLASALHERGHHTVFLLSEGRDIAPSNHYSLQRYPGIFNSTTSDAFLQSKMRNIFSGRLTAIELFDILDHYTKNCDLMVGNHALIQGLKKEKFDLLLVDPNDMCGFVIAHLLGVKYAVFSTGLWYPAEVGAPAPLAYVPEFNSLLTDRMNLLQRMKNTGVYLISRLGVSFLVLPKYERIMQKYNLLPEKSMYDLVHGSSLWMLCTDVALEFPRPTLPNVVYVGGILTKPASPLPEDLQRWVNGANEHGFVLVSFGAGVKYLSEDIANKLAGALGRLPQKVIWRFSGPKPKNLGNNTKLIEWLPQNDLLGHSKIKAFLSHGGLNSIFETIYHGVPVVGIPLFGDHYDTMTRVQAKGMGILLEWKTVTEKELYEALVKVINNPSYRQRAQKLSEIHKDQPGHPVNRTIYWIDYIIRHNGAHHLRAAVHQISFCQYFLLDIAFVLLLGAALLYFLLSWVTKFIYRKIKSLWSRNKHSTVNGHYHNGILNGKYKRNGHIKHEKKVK
Description: In vitro sulfatide (SFT) synthesis inhibition in OE19 cells, LC-MS/MS readout. It is filed as cell-based. Conditions: 72 hr, sulfatide by LC-MS/MS, read-out: Potency range (IC50, In-vitro SFT). Summed up: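 OE19 cells, 2,500/well, exposed to compound dose-downs in triplicate for 72 hr at 37° C (screening at 10 μM final). Sulfatide quantified by LC-MS/MS (C8 UPLC, isocratic, negative-ion MRM) with C17 SFT internal standard; IC50 from concentration-response curves.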

Assay [2] has as its target T2, UGT8 (Mus musculus, UniProt Q64676).
T2 construct: Groups of 5 male C57Bl/6 mice, 6-9 wks of age (Charles River Laboratories); tissue Charles River Laboratories; host or cells: mouse kidney (adult C57Bl/6) and mid-/hind brain (neonatal P14-P21 mice)
T2 sequence (Q64676 21-541): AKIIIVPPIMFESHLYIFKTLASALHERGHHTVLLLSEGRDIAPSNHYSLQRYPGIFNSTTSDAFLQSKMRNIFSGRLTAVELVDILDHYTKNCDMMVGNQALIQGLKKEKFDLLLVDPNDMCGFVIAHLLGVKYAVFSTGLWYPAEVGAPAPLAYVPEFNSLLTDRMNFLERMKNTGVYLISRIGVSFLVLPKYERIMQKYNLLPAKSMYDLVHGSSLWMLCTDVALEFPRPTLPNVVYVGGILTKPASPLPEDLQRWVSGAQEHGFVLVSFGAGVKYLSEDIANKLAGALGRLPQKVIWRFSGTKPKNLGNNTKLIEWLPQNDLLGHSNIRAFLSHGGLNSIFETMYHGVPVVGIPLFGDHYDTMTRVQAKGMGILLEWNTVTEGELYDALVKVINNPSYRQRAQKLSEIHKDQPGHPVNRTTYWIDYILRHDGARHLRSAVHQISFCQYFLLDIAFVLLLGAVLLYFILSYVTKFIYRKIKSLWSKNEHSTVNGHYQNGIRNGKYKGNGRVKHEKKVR
Description: Acute in vivo target engagement in neonatal mouse brain: inhibition of de novo GalCer and SFT synthesis (13C-Gal incorporation). Conditions: neonatal mouse (P14-P21) brain, 5 hr. The source says:
SFT biosynthesis and turnover in the myelin of adult mice is very low, necessitating development of a short-term acute model of de novo synthesis inhibition. To do this, we took advantage of the fact that unlike primates in which most developmental myelination occurs in utero, in rodents, peak myelination occurs between postnatal day 14 (P14) and P22.
Groups of 5 neonatal mice age-matched between P14 and P21 received test article formulated in a clinically-acceptable formulation, administered by oral gavage; the control group received vehicle alone. One hr after administration of test article, animals received an i.p. injection of 13C-Gal (3 g/kg); 5 hr after administration of test article, animals were euthanized, brains were removed and dissected for recovery of mid- and hind brain which was snap-frozen and stored at −80° C. until analysis. Plasma samples were also collected for test article exposure analysis.
(§1) Mass Spectrometer Analysis of SFT
(§2) Quantitative analysis of sphingolipids (SLs) was performed using liquid chromatography with tandem mass spectrometry analysis (LC-MS/MS). Briefly, to extract glucosylceramide (GlcCer), galactosylceramide (GalCer), and sulfatide (ST), an aliquot of 10 μL of mouse tissue homogenate (100 mg/ml in water) was mixed with 1 mL of extraction solution (0.2% Formic Acid; 5 mM Ammonium formate in (50:50) Methanol:Acetonitrile (v/v) with internal standards (IS)). C17-ST and D35 labeled C18-GalCer were used for IS. The mixtures were vortexed and centrifuged. The resulting supernatants were transferred to HPLC vials for LC-MS/MS analysis. GlcCer and GalCer were separated using a Waters Acquity UPLC and Atlantis HILIC Silica column (2.1 mm×150 mm, […], Waters Corp., Milford, Mass.) and analyzed by an API 5000 triple quadrupole mass spectrometer in MRM mode (Applied Biosystems, Foster City, Calif.). ST were analyzed using a Waters Acquity UPLC and BEH C18 column (2.1 mm×50 mm, […], Waters Corp., Milford, Mass.) and analyzed by an API 6500 triple quadrupole mass spectrometer in MRM mode (Applied Biosystems, Foster City, Calif.).

The target of assay [3] is T2, UGT8. Description: Acute in vivo target engagement in mouse kidney: inhibition of de novo GalCer and SFT synthesis (13C-Gal incorporation). As to conditions: 5 hr. How it is done:
In vivo target engagement was initially assessed in an adult mouse kidney model assessing de novo synthesis inhibition. This model was selected because the high rate of GalCer and SFT synthesis and turnover in kidney facilitated development of an acute one-day model assessing the effect of a single administration of compound at different doses. Inhibition of de novo synthesis was determined by measuring the amount of 13C6 galactose (13C-Gal; CIL, cat #CLM-1570-pk) incorporated into GalCer and SFT.
Groups of 5 male C57Bl/6 mice, 6-9 wks of age (Charles River Laboratories) were maintained in an ALAAC-accredited vivarium with food and water ad libitum and were allowed to acclimate one week before initiating studies. Three to 5 dose groups received test article formulated in a clinically-acceptable formulation, administered by oral gavage; the control group received vehicle alone. One hr after administration of test article, animals received an intraperitoneal (i.p.) injection of 13C-Gal (3 g/kg); 5 hr after administration of test article, animals were euthanized and a kidney was removed and divided into two longitudinal samples that were snap-frozen and stored at −80° C. until processing for test article tissue exposure and lipid analysis (GalCer and SFT). Typically, brain and plasma samples were also collected for test article exposure.
as §1, §2

With `CNC(=O)c1csc2c(C(F)(F)F)cc(N3CCC(OC(=O)NC4CC4)CC3)nc12` [Example 473, 1-(3-(Methylcarbamoyl)-7-(trifluoromethyl)thieno[3,2-b]pyridin-5-yl)piperidin-4-yl cyclopropylcarbamate], the IC50 on UGT8 [1] was under 100 nM. Besides, the “brain GalCer % inh” value on UGT8 [2] (single oral dose 10 mg/kg) is on record as “A, A, A (A > 80%)”; at UGT8 [2] (single oral dose 30 mg/kg), “A, A, A (A > 80%)”; at UGT8 [2] (single oral dose 100 mg/kg) it was “A, A, A (A > 80%)”. For the same compound, the “brain Sulfatide % inh” value is recorded as “A, A, A (A > 80%)” at UGT8 [2] (single oral dose 10 mg/kg); “A, A, A (A > 80%)” at UGT8 [2] (single oral dose 30 mg/kg); “A, A, A (A > 80%)” on UGT8 [2] (single oral dose 100 mg/kg). For the same compound, the “kidney GalCer % inh” value on UGT8 [3] (single oral dose 3 mg/kg) was “C (C < 40%)”; on UGT8 [3] (single oral dose 10 mg/kg) it was “C (C < 40%)”; on UGT8 [3] (single oral dose 50 mg/kg), “B (40% < B < 80%)”. In addition, the “kidney Sulfatide % inh” value at UGT8 [3] (single oral dose 3 mg/kg) is given as “C (C < 40%)”; on UGT8 [3] (single oral dose 10 mg/kg) it was “B (40% < B < 80%)”; on UGT8 [3] (single oral dose 50 mg/kg) it was “A (A > 80%)”.

Take `CNC(=O)c1csc2c(C(F)(F)F)cc(N3CCC(OC(=O)N[C@@H](C)COC(F)(F)F)CC3)nc12` [Example 90, 1-(3-(Methylcarbamoyl)-7-(trifluoromethyl)thieno[3,2-b]pyridin-5-yl)piperidin-4-yl (S)-(1-(trifluoromethoxy)propan-2-yl)carbamate]: the concentration for half-maximal inhibition (IC50) at UGT8 [1] was under 100 nM. Moreover, the “brain GalCer % inh” value on UGT8 [2] (single oral dose 3 mg/kg) was “A, A, A (A > 80%)”; at UGT8 [2] (single oral dose 10 mg/kg) it was “A, A, A (A > 80%)”; at UGT8 [2] (single oral dose 30 mg/kg) it was “A, A, A (A > 80%)”. Moreover, the “brain Sulfatide % inh” value at UGT8 [2] (single oral dose 3 mg/kg) is “A, A, A (A > 80%)”; at UGT8 [2] (single oral dose 10 mg/kg) it was “A, A, A (A > 80%)”; on UGT8 [2] (single oral dose 30 mg/kg) it was “A, A, A (A > 80%)”. For the same compound, the “kidney GalCer % inh” value at UGT8 [3] (single oral dose 0.3 mg/kg) is “C (C < 40%)”; at UGT8 [3] (single oral dose 1 mg/kg) it was “C (C < 40%)”; at UGT8 [3] (single oral dose 3 mg/kg) it was “A (A > 80%)”; on UGT8 [3] (single oral dose 10 mg/kg), “A (A > 80%)”; at UGT8 [3] (single oral dose 30 mg/kg), “A (A > 80%)”. Moreover, the “kidney Sulfatide % inh” value at UGT8 [3] (single oral dose 0.3 mg/kg) was “C (C < 40%)”; at UGT8 [3] (single oral dose 1 mg/kg) it was “B (40% < B < 80%)”; at UGT8 [3] (single oral dose 3 mg/kg), “A (A > 80%)”; at UGT8 [3] (single oral dose 10 mg/kg) it was “A (A > 80%)”; on UGT8 [3] (single oral dose 30 mg/kg), “A (A > 80%)”.

In the case of `CNC(=O)c1csc2c(C(F)(F)F)cc(O[C@@H]3CCN(C(=O)OCCOC(F)(F)F)[C@H](C)C3)nc12` [Example 375, 2-(Trifluoromethoxy)ethyl (2R,4R)-2-methyl-4-((3-(methylcarbamoyl)-7-(trifluoromethyl)thieno[3,2-b]pyridin-5-yl)oxy)piperidine-1-carboxylate], at UGT8 [1], the half-inhibitory concentration (IC50) is under 100 nM. Moreover, the “brain GalCer % inh” value at UGT8 [2] (single oral dose 1 mg/kg) is recorded as “B (40% < B < 80%)”; on UGT8 [2] (single oral dose 3 mg/kg), “B (40% < B < 80%)”; on UGT8 [2] (single oral dose 10 mg/kg), “A (A > 80%)”. Moreover, the “brain Sulfatide % inh” value at UGT8 [2] (single oral dose 1 mg/kg) was “B (40% < B < 80%)”; on UGT8 [2] (single oral dose 3 mg/kg), “B (40% < B < 80%)”; at UGT8 [2] (single oral dose 10 mg/kg), “A (A > 80%)”. The “kidney GalCer % inh” value on UGT8 [3] (single oral dose 1 mg/kg) is “C (C < 40%)”; on UGT8 [3] (single oral dose 3 mg/kg), “C (C < 40%)”; at UGT8 [3] (single oral dose 10 mg/kg), “B (40% < B < 80%)”; at UGT8 [3] (single oral dose 30 mg/kg) it was “A (A > 80%)”; on UGT8 [3] (single oral dose 100 mg/kg), “A (A > 80%)”. Moreover, the “kidney Sulfatide % inh” value on UGT8 [3] (single oral dose 1 mg/kg) is given as “C (C < 40%)”; at UGT8 [3] (single oral dose 3 mg/kg), “C (C < 40%)”; at UGT8 [3] (single oral dose 10 mg/kg), “B (40% < B < 80%)”; at UGT8 [3] (single oral dose 30 mg/kg) it was “A (A > 80%)”; on UGT8 [3] (single oral dose 100 mg/kg), “A (A > 80%)”.
